Test [1] deals with 5-hydroxytryptamine receptor 4 (Homo sapiens, UniProt Q13639).
In test [2] the target is 5-hydroxytryptamine receptor 4 (Rattus norvegicus, UniProt Q62758).

Results on 8 compounds are retold here after BindingDB's records for doi:10.1097/00001756-199710200-00002 (Cnrs Upr 9023, 1997).

Structures are written as SMILES. Values joined by “and” are separate entries in the source; they are usually repeats but may differ in a detail not shown here. Equal entries are not always repeated.

5-hydroxytryptamine receptor 4 (Homo sapiens, UniProt Q13639), sequence (Q13639 whole entry): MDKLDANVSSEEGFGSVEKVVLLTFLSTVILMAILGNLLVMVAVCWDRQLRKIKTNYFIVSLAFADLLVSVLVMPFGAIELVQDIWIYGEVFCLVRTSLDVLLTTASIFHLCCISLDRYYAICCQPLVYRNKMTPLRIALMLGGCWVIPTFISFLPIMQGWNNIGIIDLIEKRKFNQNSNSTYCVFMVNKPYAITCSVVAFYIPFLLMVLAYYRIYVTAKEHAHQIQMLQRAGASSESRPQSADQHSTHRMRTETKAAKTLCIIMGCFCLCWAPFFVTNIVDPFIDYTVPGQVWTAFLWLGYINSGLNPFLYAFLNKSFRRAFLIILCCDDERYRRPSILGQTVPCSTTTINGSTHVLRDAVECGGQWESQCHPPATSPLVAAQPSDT
5-hydroxytryptamine receptor 4 (Rattus norvegicus, UniProt Q62758), sequence (Q62758 whole entry): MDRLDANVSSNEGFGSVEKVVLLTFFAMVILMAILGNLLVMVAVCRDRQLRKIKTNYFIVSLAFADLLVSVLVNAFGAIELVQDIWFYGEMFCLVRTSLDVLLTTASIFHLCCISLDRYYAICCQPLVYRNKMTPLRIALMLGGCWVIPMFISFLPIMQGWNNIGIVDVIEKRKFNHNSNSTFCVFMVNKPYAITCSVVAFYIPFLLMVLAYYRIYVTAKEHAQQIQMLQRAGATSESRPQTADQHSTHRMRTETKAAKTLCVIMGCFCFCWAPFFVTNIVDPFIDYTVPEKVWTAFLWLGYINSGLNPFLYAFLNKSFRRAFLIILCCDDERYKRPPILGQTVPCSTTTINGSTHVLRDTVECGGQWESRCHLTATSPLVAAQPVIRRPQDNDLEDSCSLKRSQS

Turning to `CC(C)n1c(=O)n(C(=O)NC2CC3CCC(C2)N3C)c2ccccc21` (centres undefined) [BIMU 8], the Ki amounted to 45.7 nM in test [1] and 19.1 nM in test [2]. Regarding `COc1ccc2[nH]c(=O)n(C(=O)OC3CC4CCC(C3)N4C)c2c1` (centres undefined) [DAU 6285], the Ki in test [1] is 18.6 nM and 10.5 nM; in test [2] it was 22.4 nM and 5.37 nM. `Cn1cc(C(=O)OCC2CCN(CCNS(C)(=O)=O)CC2)c2ccccc21` [GR 113808]: the Ki in test [1] was 0.02 nM and 0.09 nM; in test [2], 0.02 nM and 0.03 nM. On to `COc1[nH]c2ccc(F)cc2c1C(=O)OCC1CCN(CCNS(C)(=O)=O)CC1` [GR-125487], for which the inhibition constant (Ki) was found to be 0.02 nM in test [1] and 0.0089 nM in test [2].

For the compound `COc1cc(N)c(Cl)cc1C(=O)NC1CCN2CCCC1C2` (centres undefined) [NSC_3035240], the affinity in test [2] corresponds to a Ki of 112 nM. For the compound `COc1cc(N)c(Cl)cc1C(=O)NC1CN2CCC1CC2` (centres undefined) [ZACOPRIDE,R], the values for the Ki in test [1] and in test [2] were 282 nM and 186 nM, respectively.

In turn, `NCCc1c[nH]c2ccc(C(N)=O)cc12` [[3H]-5-carboxamidotryptamine] registered a Ki in test [2] of 9120 nM.

As for `COc1ccc2[nH]cc(CCN)c2c1` [tryptamine, 5-Methoxy], the Ki turned out to be 155 nM in test [1] and 123 nM in test [2].

Usually Ki stands for a dissociation constant, usually derived from enzyme kinetics or from competition with a known ligand. Low readings indicate a stronger hold on the target, high ones a looser hold on the target.
